Assays:
[1] = tested on: TGF-β signaling; assay: Assay for evaluating cellular inhibition of TGF-β signaling, 4T1 (SBE-luc2P) luciferase reporter; format: cell-based; conditions: Mus musculus, 4T1, 4T1 (SBE-luc2P) transient pool, 0.2% FBS, 2 h pre-treatment, TGF-β1 2 ng/mL 24 h; read-out: IC50 4T1 Cell
Procedure, shortened: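 4T1 cells transiently carrying SBE-luc2P (6×10^3/well, 0.2% FBS, ~60% confluence) or HEK293 SBE-reporter stable cells (2.5×10^4/well, 0.5% FBS, ~80% confluence) pre-treated with compound for 2 h. TGF-β1 (2 ng/mL) then added for 24 h at 37 °C; luciferase luminescence read from lysates.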

[2] = target: T1, ALK5 kinase (Homo sapiens, UniProt P36897); assay: LanthaScreen Eu Kinase Binding Assay; conditions: Kinase Tracer 178, Eu-anti-GST Antibody, read-out: IC50 Enzyme
T1 sequence (P36897 34-503): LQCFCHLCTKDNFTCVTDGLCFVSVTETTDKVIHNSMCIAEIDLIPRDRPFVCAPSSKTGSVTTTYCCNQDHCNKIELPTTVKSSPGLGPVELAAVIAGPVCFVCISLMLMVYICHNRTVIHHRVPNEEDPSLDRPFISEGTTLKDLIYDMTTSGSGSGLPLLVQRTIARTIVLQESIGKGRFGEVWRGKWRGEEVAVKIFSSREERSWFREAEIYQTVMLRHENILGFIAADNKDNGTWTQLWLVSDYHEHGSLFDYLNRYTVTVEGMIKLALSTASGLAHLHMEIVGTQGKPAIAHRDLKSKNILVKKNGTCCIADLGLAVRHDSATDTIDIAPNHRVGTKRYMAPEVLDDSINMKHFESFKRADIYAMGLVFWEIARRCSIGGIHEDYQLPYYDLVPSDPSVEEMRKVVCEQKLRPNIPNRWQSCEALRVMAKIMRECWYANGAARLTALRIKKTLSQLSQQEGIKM
Procedure, shortened: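 Compound (1% DMSO final) preincubated 30 min at RT with GST-tagged ALK5, then Eu-anti-GST antibody and Kinase Tracer 178 added for 60 min at RT. TR-FRET read at 340 nm excitation; 665/615 nm emission ratio falls as compound binding rises.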

Structure (SMILES) | IC50 [1] [nM] | IC50 [2] [nM]
COc1nc(-c2ccccc2)c(Oc2ccnc(Nc3cccc(C(C)(C)O)c3)c2)s1 [A-141, 2-(3-((4-((2-Methoxy-4-phenylthiazol-5-yl)oxy)pyridin-2-yl)amino)phenyl)propan-2-ol] | > 100 | < 100
COc1nc(-c2ccccc2)c(Oc2ccnc(Nc3cccc(S(N)(=O)=O)c3)c2)s1 [A-142, 3-((4-((2-Methoxy-4-phenylthiazol-5-yl)oxy)pyridin-2-yl)amino)benzenesulfonamide] | > 100 | < 100
COc1nc(-c2ccccc2)c(Oc2ccnc(Nc3cccc(C(N)=O)c3)c2)s1 [A-143, 3-((4-((2-Methoxy-4-phenylthiazol-5-yl)oxy)pyridin-2-yl)amino)benzamide] | > 100 | < 100
COc1nc(-c2ccccc2)c(Oc2ccnc(Nc3cccc(C(=O)O)c3)c2)s1 [A-144, 3-((4-((2-Methoxy-4-phenylthiazol-5-yl)oxy)pyridin-2-yl)amino)benzoic acid] | > 100 | < 100
NS(=O)(=O)c1cccc(Nc2cc(Oc3sc(C(F)(F)F)nc3-c3ccccc3)ccn2)c1 [A-145, 3-((4-((4-Phenyl-2-(trifluoromethyl)thiazol-5-yl)oxy)pyridin-2-yl)amino)benzenesulfonamide] | > 100 | < 100
NC(=O)c1ccc(Nc2cc(Oc3sc(C(F)(F)F)nc3-c3ccccc3)ccn2)nc1 [A-146, 6-((4-((4-Phenyl-2-(trifluoromethyl)thiazol-5-yl)oxy)pyridin-2-yl)amino)nicotinamide] | < 100 | < 100
NC(=O)c1ccc(Nc2cc(Oc3sc(C(F)(F)F)nc3-c3ccccc3)ccn2)cc1 [A-147, 4-((4-((4-Phenyl-2-(trifluoromethyl)thiazol-5-yl)oxy)pyridin-2-yl)amino)benzamide] | < 100 | < 100
CNC(=O)c1ccc(Nc2cc(Oc3sc(C(F)(F)F)nc3-c3ccccc3)ccn2)cc1 [A-148, N-Methyl-4-((4-((4-phenyl-2-(trifluoromethyl)thiazol-5-yl)oxy)pyridin-2-yl)amino)benzamide] | < 100 | < 100
O=C(O)c1ccc(Nc2cc(Oc3sc(C(F)(F)F)nc3-c3ccccc3)ccn2)nc1 [A-149, 6-((4-((4-Phenyl-2-(trifluoromethyl)thiazol-5-yl)oxy)pyridin-2-yl)amino)nicotinic acid] | < 100 | < 100
CNC(=O)c1ccc(Nc2cc(Oc3sc(C(F)(F)F)nc3-c3ccccc3)ccn2)nc1 [A-150, N-Methyl-6-((4-((4-phenyl-2-(trifluoromethyl)thiazol-5-yl)oxy)pyridin-2-yl)amino)nicotinamide] | < 100 | < 100
O=C(O)c1cccc(Nc2cc(Oc3sc(C(F)(F)F)nc3-c3ccccc3)ccn2)c1 [A-151, 3-((4-((4-Phenyl-2-(trifluoromethyl)thiazol-5-yl)oxy)pyridin-2-yl)amino)benzoic acid] | > 100 | < 100
O=C(O)c1ccc(Nc2cc(Oc3sc(C(F)(F)F)nc3-c3ccccc3)ccn2)cc1 [A-152, 4-((4-((4-Phenyl-2-(trifluoromethyl)thiazol-5-yl)oxy)pyridin-2-yl)amino)benzoic acid] | < 100 | < 100
CN(C)c1nc(-c2ccccc2)c(Oc2ccnc(Nc3cccc(C(C)(C)O)c3)c2)s1 [A-153, 2-(3-((4-((2-(Dimethylamino)-4-phenylthiazol-5-yl)oxy)pyridin-2-yl)amino)phenyl)propan-2-ol] | > 100 | < 100
CN(C)c1nc(-c2ccccc2)c(Oc2ccnc(Nc3cccc(S(N)(=O)=O)c3)c2)s1 [A-154, 3-((4-((2-(Dimethylamino)-4-phenylthiazol-5-yl)oxy)pyridin-2-yl)amino)benzenesulfonamide] | > 100 | < 100
CN(C)c1nc(-c2ccccc2)c(Oc2ccnc(Nc3cccc(C(N)=O)c3)c2)s1 [A-155, 3-((4-((2-(Dimethylamino)-4-phenylthiazol-5-yl)oxy)pyridin-2-yl)amino)benzamide] | < 100 | < 100
CN(C)c1nc(-c2ccccc2)c(Oc2ccnc(Nc3ccc(S(N)(=O)=O)cc3)c2)s1 [A-156, 4-((4-((2-(Dimethylamino)-4-phenylthiazol-5-yl)oxy)pyridin-2-yl)amino)benzenesulfonamide] | > 100 | < 100
CN(C)c1nc(-c2ccccc2)c(Oc2ccnc(Nc3ccc(C(N)=O)cc3)c2)s1 [A-157, 4-((4-((2-(Dimethylamino)-4-phenylthiazol-5-yl)oxy)pyridin-2-yl)amino)benzamide] | < 100 | < 100

Structure (SMILES) | IC50 [1] [nM] | IC50 [2] [nM]
CN(C)c1nc(-c2ccccc2)c(Oc2ccnc(Nc3ccnc(C(C)(C)O)c3)c2)s1 [A-158, 2-(4-((4-((2-(Dimethylamino)-4-phenylthiazol-5-yl)oxy)pyridin-2-yl)amino)pyridin-2-yl)propan-2-ol] | > 100 | < 100
CN(C)c1nc(-c2ccccc2)c(Oc2ccnc(Nc3ccc(C(C)(C)O)nc3)c2)s1 [A-159, 2-(5-((4-((2-(Dimethylamino)-4-phenylthiazol-5-yl)oxy)pyridin-2-yl)amino)pyridin-2-yl)propan-2-ol] | > 100 | < 100
CN(C)c1nc(-c2ccccc2)c(Oc2ccnc(Nc3cccc(C(N)=O)n3)c2)s1 [A-160, 6-((4-((2-(Dimethylamino)-4-phenylthiazol-5-yl)oxy)pyridin-2-yl)amino)picolinamide] | < 100 | < 100
CNC(=O)c1cccc(Nc2cc(Oc3sc(N(C)C)nc3-c3ccccc3)ccn2)n1 [A-161, 6-((4-((2-(Dimethylamino)-4-phenylthiazol-5-yl)oxy)pyridin-2-yl)amino)-N-methylpicolinamide] | < 100 | < 100
CN(C)c1nc(-c2ccccc2)c(Oc2ccnc(Nc3ccc(C(N)=O)cn3)c2)s1 [A-163, 6-((4-((2-(Dimethylamino)-4-phenylthiazol-5-yl)oxy)pyridin-2-yl)amino)nicotinamide] | < 100 | < 100
CNC(=O)c1ccc(Nc2cc(Oc3sc(N(C)C)nc3-c3ccccc3)ccn2)cc1 [A-164, 4-((4-((2-(Dimethylamino)-4-phenylthiazol-5-yl)oxy)pyridin-2-yl)amino)-N-methylbenzamide] | > 100 | < 100
CN(C)c1nc(-c2ccccc2)c(Oc2ccnc(Nc3ccc(C(=O)O)cn3)c2)s1 [A-165, 6-((4-((2-(Dimethylamino)-4-phenylthiazol-5-yl)oxy)pyridin-2-yl)amino)nicotinic acid] | < 100 | < 100
CNC(=O)c1ccc(Nc2cc(Oc3sc(N(C)C)nc3-c3ccccc3)ccn2)nc1 [A-166, 6-((4-((2-(Dimethylamino)-4-phenylthiazol-5-yl)oxy)pyridin-2-yl)amino)-N-methylnicotinamide] | < 100 | < 100
CN(C)c1nc(-c2ccccc2)c(Oc2ccnc(Nc3cccc(C(=O)O)c3)c2)s1 [A-167, 3-((4-((2-(Dimethylamino)-4-phenylthiazol-5-yl)oxy)pyridin-2-yl)amino)benzoic acid] | > 100 | < 100
CN(C)c1nc(-c2ccccc2)c(Oc2ccnc(Nc3ccc(C(=O)O)cc3)c2)s1 [A-168, 4-((4-((2-(Dimethylamino)-4-phenylthiazol-5-yl)oxy)pyridin-2-yl)amino)benzoic acid] | < 100 | < 100
CN(C)c1nc(-c2ccccc2)c(Oc2ccnc(Nc3cccc(C(=O)O)n3)c2)s1 [A-169, 6-((4-((2-(Dimethylamino)-4-phenylthiazol-5-yl)oxy)pyridin-2-yl)amino)picolinic acid] | > 100 | < 100
COC(=O)c1cccc(Nc2cc(Oc3sc(Br)nc3-c3ccccc3)ccn2)c1 [A-170, Methyl 3-((4-((2-bromo-4-phenylthiazol-5-yl)oxy)pyridin-2-yl)amino)benzoate] | > 100 | < 100
O=C(O)c1cccc(Nc2cc(Oc3sc(Br)nc3-c3ccccc3)ccn2)c1 [A-171, 3-((4-((2-Bromo-4-phenylthiazol-5-yl)oxy)pyridin-2-yl)amino)benzoic acid] | > 100 | < 100
NC(=O)c1cccc(Nc2cc(Oc3sc(Br)nc3-c3ccccc3)ccn2)c1 [A-172, 3-((4-((2-Bromo-4-phenylthiazol-5-yl)oxy)pyridin-2-yl)amino)benzamide] | > 100 | > 100
O=C(O)c1ccc(Nc2cc(Oc3sc(C4CCCC4)nc3-c3ccccc3)ccn2)nc1 [A-174, 6-((4-((2-Cyclopentyl-4-phenylthiazol-5-yl)oxy)pyridin-2-yl)amino)nicotinic acid] | > 100 | < 100
O=C(O)c1ccc(Nc2cc(Oc3sc(C4CCCC4)nc3-c3ccccc3)ccn2)cc1 [A-175, 4-((4-((2-Cyclopentyl-4-phenylthiazol-5-yl)oxy)pyridin-2-yl)amino)benzoic acid] | > 100 | < 100
